Results as given in patent publication US20260053777A1, “USE OF NRF2 ACTIVATORS FOR THE TREATMENT OF CEREBRAL SMALL VESSEL DISEASE” (INSTITUT NATIONAL DE LA SANTÉ ET DE LA RECHERCHE MÉDICALE, priority 2022, published 2026).

Assays:
[1] = tested on: Human brain microvascular endothelial cells (HBMEC); assay: Cellrox Green detection of oxidative stress in HBMEC treated with control or TRIM47 siRNA and Luperox; format: cell-based; conditions: Luperox, pre-treatment with tBHQ
Description: Human brain microvascular endothelial cells (HBMEC) were treated with control or TRIM47 siRNA and with/without Luperox (inducer of oxidative stress) and incubated with Cellrox Green dye (detection of oxidative stress).

[2] = tested on: Nrf2 and its target genes; assay: qPCR screening of Nrf2 and its target genes on brain endothelial cells isolated from adult mice with/without tBHQ diet; format: in vivo
[3] = tested on: Trim47 −/− adult mice; assay: Water maze behavioural test on adult mice with/without a diet with tBHQ; format: in vivo
Description: FIG. 4. TRIM47 is essential to brain physiology by promoting the NRF2 antioxidant protective system. […] B. RNA-sequencing was performed on HBMEC treated with control or TRIM47 siRNA. C. Assessment of blood brain barrier (BBB) permeability was done on Trim47 +/+ and Trim47 −/− adult mice. Mann-Whitney test. D. Representative image by immunofluorescence of GFAP expression (activated astrocytes) in brain sections from Trim47 +/+ and Trim47 −/− adult mice. E. Water maze behavioural test performed on adult mice with/without a diet with tBHQ. Two-way ANOVA with repeated measures. […] Latency to reach platform is shown for the 4 training days (FIG. 4E).

[4] = tested on: NRF2; assay: Rescue of the effect of TRIM47 knockdown by activation of NRF2 at the protein level (FIG. 3); format: cell-based, human; conditions: tBHQ stabilizing NRF2 protein
Source text: FIG. 3. […] Methods. TRIM47 interacting effectors were searched by proximity labeling assay (BioID) in human brain EC. TRIM47 knockdown in EC allowed to explore TRIM47 role in functional assays, and to identify transcriptional response by RNA-sequencing.

[5] = Trim47 KO mice, brain EC, +tBHQ diet (1% W/W, 1 month), mean of n = 5
[6] = Trim47 WT mice, brain EC, +tBHQ diet (1% W/W, 1 month), mean of n = 5

Q: How did the “Induction of oxidative stress (Cellrox Green dye)” value [1] turn out when `CC(C)(C)c1cc(O)ccc1O` [tBHQ, tert-butylhydroquinone] was run?
A: Its value is “reversed induction of oxidative stress”.

Q: What about the “Relative gene expression fold change (normalized to Pecam1): Cdh5 (BBB integrity)” value [2, 5] of the same molecule?
A: The value was 0.967.

Q: And the “Relative gene expression fold change (normalized to Pecam1): Cldn5 (BBB integrity)” value [2, 5]?
A: Its value is 0.877.

Q: What about the “Relative gene expression fold change (normalized to Pecam1): Cldn11 (BBB integrity)” value [2, 5] of the same molecule?
A: Its value is 1.020.

Q: What about the “Relative gene expression fold change (normalized to Pecam1): Gclm (Nrf2 pathway)” value [2, 5] of the same molecule?
A: Its value is 1.009.

Q: What about the “Relative gene expression fold change (normalized to Pecam1): Hmox1 (Nrf2 pathway)” value [2, 5] of the same molecule?
A: Its value is 1.095.

Q: And the “Relative gene expression fold change (normalized to Pecam1): Keap1 (Nrf2 pathway)” value [2, 5]?
A: Its value is 0.730.

Q: What about the “Relative gene expression fold change (normalized to Pecam1): Me1 (Nrf2 pathway)” value [2, 5] of the same molecule?
A: Its value is 1.148.

Q: And the “Relative gene expression fold change (normalized to Pecam1): Nfe2l2 (Nrf2 pathway)” value [2, 5]?
A: Its value is 1.040.

Q: What about the “Relative gene expression fold change (normalized to Pecam1): Nqo1 (Nrf2 pathway)” value [2, 5] of the same molecule?
A: Its value is 1.084.

Q: What about the “Relative gene expression fold change (normalized to Pecam1): Ocln (BBB integrity)” value [2, 5] of the same molecule?
A: The value was 0.895.

Q: And the “Relative gene expression fold change (normalized to Pecam1): Slc7a11 (Nrf2 pathway)” value [2, 5]?
A: Its value is 1.145.

Q: What about the “Relative gene expression fold change (normalized to Pecam1): Cdh5 (BBB integrity)” value [2, 6] of the same molecule?
A: The value was 1.013.

Q: And the “Relative gene expression fold change (normalized to Pecam1): Cldn5 (BBB integrity)” value [2, 6]?
A: Its value is 1.071.

Q: And the “Relative gene expression fold change (normalized to Pecam1): Cldn11 (BBB integrity)” value [2, 6]?
A: Its value is 1.016.

Q: And the “Relative gene expression fold change (normalized to Pecam1): Gclm (Nrf2 pathway)” value [2, 6]?
A: The value was 0.999.

Q: What about the “Relative gene expression fold change (normalized to Pecam1): Hmox1 (Nrf2 pathway)” value [2, 6] of the same molecule?
A: The value was 1.033.

Q: And the “Relative gene expression fold change (normalized to Pecam1): Keap1 (Nrf2 pathway)” value [2, 6]?
A: Its value is 1.014.

Q: And the “Relative gene expression fold change (normalized to Pecam1): Me1 (Nrf2 pathway)” value [2, 6]?
A: Its value is 1.033.

Q: What about the “Relative gene expression fold change (normalized to Pecam1): Nfe2l2 (Nrf2 pathway)” value [2, 6] of the same molecule?
A: Its value is 1.007.

Q: And the “Relative gene expression fold change (normalized to Pecam1): Nqo1 (Nrf2 pathway)” value [2, 6]?
A: The value was 1.033.

Q: What about the “Relative gene expression fold change (normalized to Pecam1): Ocln (BBB integrity)” value [2, 6] of the same molecule?
A: The value was 1.025.

Q: And the “Relative gene expression fold change (normalized to Pecam1): Slc7a11 (Nrf2 pathway)” value [2, 6]?
A: Its value is 1.030.

Q: And the “Relative gene expression fold change (normalized to Pecam1): Trim47” value [2, 6]?
A: The value was 1.066.

Q: And the “Impairment of the Nrf2 pathway in Trim47 −/− mice (qPCR, brain endothelial cells)” value ([2]; Trim47 −/− adult mice, 1-month diet with tBHQ (1% W/W))?
A: The value was “prevented”.

Q: What about the “Cognitive impairment in water maze (latency to reach platform, 4 training days)” value [3] of the same molecule?
A: The value was “prevent cognitive impairment”.

Q: And the “Effect of TRIM47 knockdown (FIG. 3)” value [4]?
A: Its value is “partly rescues the effect of TRIM47 knockdown”.
